From ChEMBL document CHEMBL4028875, “Design of Leucine-Rich Repeat Kinase 2 (LRRK2) Inhibitors Using a Crystallographic Surrogate Derived from Checkpoint Kinase 1 (CHK1)” (J Med Chem, 2017)
Activity calls are given as the source filed them. No cut-off for these calls is given here.

Target: T1, Adenosine receptor A1 (Homo sapiens) (UniProt P30542)
T1 sequence (whole entry): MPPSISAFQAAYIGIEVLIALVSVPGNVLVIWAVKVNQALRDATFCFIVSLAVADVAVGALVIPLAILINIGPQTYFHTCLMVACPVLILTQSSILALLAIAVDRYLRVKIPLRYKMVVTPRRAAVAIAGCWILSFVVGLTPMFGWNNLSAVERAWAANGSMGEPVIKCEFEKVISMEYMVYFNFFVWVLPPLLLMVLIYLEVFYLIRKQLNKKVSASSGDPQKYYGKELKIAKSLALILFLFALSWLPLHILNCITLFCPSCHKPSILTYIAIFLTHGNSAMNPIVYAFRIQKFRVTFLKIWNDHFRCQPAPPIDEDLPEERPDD
Assay: Antagonist activity at recombinant human adenosine A1 receptor expressed in mouse BA/F3 cells assessed as inhibition of CPA-induced calcium flux up to 10 uM by spectrophotometric analysis
Assay type: functional, cell-based

Structure (SMILES): Cc1cccc(-c2cc(N)nc3[nH]cc(C#N)c23)c1
- inhibition: inactive
